Experimental data reported in publication PMC9687241 (Biomolecules, 2022).

Columns and labels:
[1] = molecular target: T1, SARS-CoV-2 M^pro (Severe acute respiratory syndrome coronavirus 2, UniProt P0DTD1); format: biochemical; settings: 0.2 µM M^pro, 2 h incubation at r.t., 4 µM substrate, Hill equation fit; read-out: Inhibition constants, Ki
[2] = molecular target: T1, SARS-CoV-2 M^pro; test: ESI MS of metallodrug-protein adduct formation; format: binding; settings: protein-to-metal ratio 1:3 (1:1 for Au(PEt3)Br), 37 °C, 4 h incubation (up to 24 h)

SMILES	Ki [1] [nM]	protein metalation / adduct formation (ESI MS) [2]
CCP(CC)CC.[Au+].[Cl-] [Au(PEt3)Cl]	660 ± 26	
CC[P](CC)(CC)[Au][I] [Au(PEt3)I]	2120 ± 96	
CC[P](CC)(CC)[Au][Br] [Au(PEt3)Br]	440 ± 22	
CCCC[n+]1ccn(C)[c]1[Au-][Cl] [Au(NHC)Cl]	870 ± 40	formation of a mono adduct
